Inconclusive results and toxic doses are left out. Rule for the calls: active = survival T/C of 150% or more; inactive = T/C below 125% in these data.
Tested on: BDF1 mice, P388 leukemia ip, median survival T/C
Experiment: NCI In Vivo Anticancer Drug Screen. Data for tumor model P388 Leukemia (intraperitoneal) in B6D2F1 (BDF1) mice
Details: endpoint: median survival time, higher = longer survival
In short: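 Each value expresses how treatment altered survival: treated-mouse outcome over vehicle-mouse outcome, both groups bearing the transplanted tumour.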

[1] = dose: 12.5 mg/kg/injection, schedule: Q01DX009 (ip), vehicle: Klucel (hydroxypropylcellulose) (HPC)
[2] = dose: 25.0 mg/kg/injection, schedule: Q01DX009 (ip), vehicle: Klucel (hydroxypropylcellulose) (HPC)
[3] = dose: 50.0 mg/kg/injection, schedule: Q01DX009 (ip), vehicle: saline with Tween-80
[4] = dose: 50.0 mg/kg/injection, schedule: Q01DX009 (ip), vehicle: Klucel (hydroxypropylcellulose) (HPC)
[5] = dose: 50.0 mg/kg/injection, schedule: Q04DX003 (ip), vehicle: Klucel (hydroxypropylcellulose) (HPC)
[6] = dose: 100.0 mg/kg/injection, schedule: Q01DX009 (ip), vehicle: saline with Tween-80

Measured: T/C

c1ccc2c[n+]3ccccc3cc2c1
inactive: dose: 6.25 mg/kg/injection, schedule: Q01DX009 (ip), vehicle: saline 95 % of control | dose: 8.75 mg/kg/injection, schedule: Q04DX003 (ip), vehicle: saline 100 % of control | [1] 100 % of control | dose: 12.5 mg/kg/injection, schedule: Q01DX009 (ip), vehicle: saline 104 % of control | dose: 17.5 mg/kg/injection, schedule: Q04DX003 (ip), vehicle: saline 95 % of control | [2] 95 % of control

CC1CCC2(C(=O)O)CCC3(C)C(=CCC4C5(C)CC(O)C(O)C(C)(C(=O)O)C5CCC43C)C2C1(C)O (stereo unspecified)
inactive: dose: 100.0 mg/kg/injection, schedule: Q01DX001 (ip), vehicle: saline with Tween-80 104 % of control | dose: 200.0 mg/kg/injection, schedule: Q01DX001 (ip), vehicle: saline with Tween-80 100 % of control

NC(=S)N/N=C\c1nnc(N)s1
inactive: [3] 90 % of control

CCN1CSC(=S)N(CC)C1
inactive: [1] 110 % of control | [2] 110 % of control | dose: 25.0 mg/kg/injection, schedule: Q01DX009 (ip), vehicle: saline with Tween-80 109 % of control | dose: 25.0 mg/kg/injection, schedule: Q04DX003 (ip), vehicle: Klucel (hydroxypropylcellulose) (HPC) 95 % of control | dose: 37.5 mg/kg/injection, schedule: Q01DX009 (ip), vehicle: saline with Tween-80 109 % of control | [4] 110 % of control | [3] 109 % of control | [5] 87 % of control | dose: 75.0 mg/kg/injection, schedule: Q01DX009 (ip), vehicle: saline with Tween-80 119 % of control | [6] 122 % of control

O=c1c2ccccc2[nH]c2ccc(Cl)cc12
inactive: [6] 97 % of control | dose: 200.0 mg/kg/injection, schedule: Q01DX009 (ip), vehicle: saline with Tween-80 98 % of control | dose: 400.0 mg/kg/injection, schedule: Q01DX009 (ip), vehicle: saline with Tween-80 89 % of control

O=C(O)c1c(Cl)c(Cl)c(Cl)c(C(=O)O)c1Cl
inactive: [4] 104 % of control | [5] 109 % of control | dose: 100.0 mg/kg/injection, schedule: Q01DX009 (ip), vehicle: Klucel (hydroxypropylcellulose) (HPC) 100 % of control | dose: 100.0 mg/kg/injection, schedule: Q04DX003 (ip), vehicle: Klucel (hydroxypropylcellulose) (HPC) 95 % of control | dose: 200.0 mg/kg/injection, schedule: Q04DX003 (ip), vehicle: Klucel (hydroxypropylcellulose) (HPC) 100 % of control

COC(=O)C(C#N)Cc1ccccc1Cl (stereo unspecified)
inactive: dose: 50.0 mg/kg/injection, schedule: Q04DX003 (ip), vehicle: saline with Tween-80 101 % of control | dose: 100.0 mg/kg/injection, schedule: Q04DX003 (ip), vehicle: saline with Tween-80 98 % of control | dose: 200.0 mg/kg/injection, schedule: Q04DX003 (ip), vehicle: saline with Tween-80 98 % of control | dose: 400.0 mg/kg/injection, schedule: Q04DX003 (ip), vehicle: saline with Tween-80 97 % of control

Source: PubChem BioAssay AID328 (DTP/NCI, 2004)
